Read-outs that look alike come from different tables or passages of the source.
System: TGFβ signal
Assay: TGFβ signal inhibitory activity, (SBE)4-Luc reporter in A549 cells (Test Examples 1A and 1B)
Format: cell-based, human
Conditions: Homo sapiens, A549, read-out: TGFβ inhibition rate, %
How it was run: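 Compounds at 3 µM and 10 µM (some 1 µM) were added with 2 ng/ml TGFβ-1 to A549 cells stably expressing an SBE-driven luciferase, then cultured 4 hr. Chemiluminescent luciferase signal gave % inhibition versus TGFβ-alone and no-TGFβ controls.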

[1] = 3 µM, compounds of Reference Examples (Test Example 1B)
[2] = 10 µM, compounds of Reference Examples (Test Example 1B)
[3] = test compound 3 µM, Reference Examples, Table 1B
[4] = test compound 10 µM, Reference Examples, Table 1B
[5] = test compound 3 µM, TGFβ-1 2 ng/ml, 4 hr, Table 1A
[6] = test compound 10 µM, TGFβ-1 2 ng/ml, 4 hr, Table 1A

| Structure (SMILES) | inhibition at 3 µM [1] | inhibition at 10 µM [2] | inhibition at 3 µM [5] | also measured |
| --- | --- | --- | --- | --- |
| COc1cc2c(Oc3cc4ccccc4nc3C)ccnc2cc1OCC(CO)(CO)CO [Compound r388] | 88% | 100% |  |  |
| COc1cc2nccc(Oc3ccc4c(ccn4C)c3)c2cc1OC [Compound r20, 6,7-Dimethoxy-4-[(1-methyl-5-indolyl)oxy]quinoline] |  |  |  | inhibition at 3 µM [3]: 19%; inhibition at 10 µM [4]: 69% |
| Cc1ccc(-c2nc(C)c(C)cc2Oc2ccnc3cc(Cl)ccc23)nc1 [Compound r432] | 99% | 100% |  |  |
| COc1cc2nccc(Oc3cc(C)c(Cl)cc3C(=O)c3ccccc3)c2cc1OC [r75] |  |  |  | inhibition at 3 µM [3]: 97%; inhibition at 10 µM [4]: 100% |
| COc1cc2c(Oc3cc(C)c(C)nc3-c3nc(C)c(C)s3)ccnc2cc1OCC1CO1 (centres unmarked) [Compound r458] | 94% | 100% |  |  |
| COc1cc2c(Oc3cc4ccccc4nc3C)ccnc2cc1OCCCO [Compound r382] | 100% | 100% |  |  |
| COc1cc2c(Oc3cc(C)c(C)nc3-c3cccnc3)ccnc2cc1OCC(CO)CO [Compound r350] | 96% |  |  |  |
| COc1cc2nccc(Oc3cc4cccnc4cc3OC)c2cc1OC [Compound r297, 6,7-Dimethoxy-4-(7-methoxy-quinolin-6-yloxy)-quinoline] | 61% | 94% |  |  |
| CCc1ccc(Oc2ccnc3ccc(OCCOC(=O)[C@@H](N)C(C)C)cc23)c(-c2ncccn2)n1 [Compound 208, 2-[4-(6-Ethyl-2-pyrimidin-2-yl-pyridin-3-yloxy)-quinolin-6-yloxy]-ethyl (S)-2-amino-3-methyl-butanoate] |  |  | 75% |  |
| COc1cc2nccc(Oc3ccc(C)cc3C(=O)c3ccc(O)cc3)c2cc1OC [r188] | 80% | 100% |  |  |
| COc1cc2nccc(Oc3ccc(C)cc3CN3CCCCC3)c2cc1OC [Compound r6, 6,7-Dimethoxy-4-[4-methyl-2-(piperidinomethyl)phenoxy]quinoline] |  |  |  | inhibition at 3 µM [3]: 30%; inhibition at 10 µM [4]: 72% |
| COc1cc2c(Oc3cc4ccccc4nc3C)ccnc2cc1OCC(CO)(CO)CBr [Compound r389] | 100% | 100% |  |  |
| CO/N=C(\C)c1cc(C)c(C)cc1Oc1ccnc2cc(OC)c(OC)cc12 [r196] | 41% | 83% |  |  |
| Cc1cc(Oc2ccnc3ccc(OCCO)cc23)c(-c2ccccn2)nc1C [Compound 142, 2-[4-(5,6-Dimethyl-[2,2']bipyridinyl-3-yloxy)-quinolin-6-yloxy]-ethanol] |  |  | 98% | inhibition at 10 µM [6]: 100% |
| COc1cc2nccc(Oc3cc4ccccc4nc3C)c2cc1OCc1ccccc1 [Compound r415, 6-Benzyloxy-7-methoxy-4-(2-methyl-quinolin-3-yloxy)-quinoline] | 77% | 100% |  |  |
| COc1cc2c(Oc3cc4cccnc4nc3C)ccnc2cc1OCCO [Compound r400] | 82% | 100% |  |  |
| COc1cc2nccc(Oc3ccc(C)nc3-c3cccc(Cl)c3)c2cc1OC [Compound r241] | 96% | 100% |  |  |
| COc1cc2c(Oc3cc(C)c(C)nc3-c3cccnc3)ccnc2cc1OCC(O)CO (centres unmarked) [Compound r349] | 96% |  |  |  |
| COc1cc2nccc(Oc3ccc(SC)nc3-c3ccccn3)c2cc1OC [Compound r266] | 92% | 100% |  |  |
| CCC(=O)c1cc(C(C)(C)C)ccc1Oc1ccnc2cc(OC)c(OC)cc12 [Compound r49] |  |  |  | inhibition at 3 µM [3]: 0%; inhibition at 10 µM [4]: 62% |
| COc1cc2nccc(Oc3cc4cccnc4nc3-c3ccc(Cl)cc3)c2cc1OC [Compound 84, 2-(4-Chloro-phenyl)-3-(6,7-dimethoxy-quinolin-4-yloxy)-[1,8]naphthyridine] |  |  | 69% | inhibition at 10 µM [6]: 100% |
| COc1cc2nccc(Oc3ccc(C)cc3C(=O)c3ccco3)c2cc1OC [Compound r60] |  |  |  | inhibition at 3 µM [3]: 63%; inhibition at 10 µM [4]: 98% |
| COc1cc2nccc(Oc3cc4cccnc4nc3-c3ccccc3)c2cc1C(=O)NCc1ccccc1 [Compound 65, 7-Methoxy-4-(2-phenyl-[1,8]naphthyridin-3-yloxy)-quinoline-6-carboxylate benzylamide] |  |  | 97% | inhibition at 10 µM [6]: 100% |
| CCOC(=O)c1cc(F)ccc1Oc1ccnc2cc(OC)c(OC)cc12 [Compound r83] |  |  |  | inhibition at 3 µM [3]: 41%; inhibition at 10 µM [4]: 81% |
| Cc1ccc2nccc(Oc3cc(C)c(C)nc3-c3ccccn3)c2c1 [Compound 157, 5,6-Dimethyl-3-(6-methyl-quinolin-4-yloxy)-[2,2']bipyridine] |  |  | 99% | inhibition at 10 µM [6]: 100% |

| Structure (SMILES) | inhibition at 3 µM [1] | inhibition at 10 µM [2] | inhibition at 3 µM [5] | also measured |
| --- | --- | --- | --- | --- |
| COc1cc2nccc(Oc3ccc(Cl)cc3C(N)=O)c2cc1OC [Compound r106] |  |  |  | inhibition at 3 µM [3]: 9%; inhibition at 10 µM [4]: 80% |
| COc1cccc(-c2nc3ncccc3cc2Oc2ccnc3cc(OC)c(OC)cc23)c1 [Compound 81, 3-(6,7-Dimethoxy-quinolin-4-yloxy)-2-(3-methoxy-phenyl)-[1,8] naphthyridine] |  |  | 97% | inhibition at 10 µM [6]: 100% |
| CCc1ccc(Oc2ccnc3cc(C(N)=O)c(Cl)cc23)c(-c2ccccn2)n1 [Compound 185, 6-Chloro-4-(6-ethyl-[2,2']bipyridinyl-3-yloxy)-quinoline-7-carboxylic acid amide] |  |  | 96% | inhibition at 10 µM [6]: 100% |
| COc1cc2c(Oc3cc4ccccc4nc3C)ccnc2cc1OC(CO)CO [Compound r374] | 26% | 79% |  |  |
| CCc1ccc(Oc2ccnc3cc(OC)c(F)cc23)c(-c2ccccn2)n1 [Compound 162, 6-Ethyl-3-(6-fluoro-7-methoxy-quinolin-4-yloxy)-[2,2']bipyridine] |  |  | 100% | inhibition at 10 µM [6]: 100% |
| COc1cc2nccc(Oc3cc(C)c(C)nc3-c3cnccc3C)c2cc1OC [r435] | 29% | 79% |  |  |
| COc1cc2nccc(Oc3ccc(OCc4ccccc4)cc3C(C)=O)c2cc1OC [Compound r175, 1-[5-Benzyloxy-2-(6,7-dimethoxy-quinotin-4-yloxy)-phenyl]-ethanone] | 13% | 60% |  |  |
| COc1cc2nccc(Oc3cc(C(C)(C)C)c(OC)cc3C(C)=O)c2cc1OC [Compound r185] | 11% | 59% |  |  |
| COc1cc2nccc(Oc3cc(C)c(C)nc3-c3cccnc3)c2cc1OC [Compound r270] | 100% |  |  |  |
| Cc1cc(Oc2ccnc3cc(-c4ccsc4)ccc23)c(-c2ccccn2)nc1C [Compound 171, 5,6-Dimethyl-3-(7-thioahen-3-yl-quinolin-4-yloxy)-[2,2']bipyridine] |  |  | 100% | inhibition at 10 µM [6]: 100% |
| COc1cc2nccc(Oc3cc4cccnc4nc3-c3ccc(Br)cc3)c2cc1OC [Compound 85, 2-(4-Bromo-phenyl)-3'-(6,7-dimethoxy-quinolin-4-yloxy)-[1,8]naphthyridine] |  |  | 48% | inhibition at 10 µM [6]: 97% |
| COc1cc2nccc(Oc3ccc(C)nc3-c3ccc(C(C)C)cc3)c2cc1OC [Compound r243] | -7% | 62% |  |  |
| COc1cc2nccc(Oc3cc(C)c(C)cc3/C(C)=N/Oc3ccccc3)c2cc1OC [r199] | 14% | 59% |  |  |
| COc1cc2nccc(Oc3cc4cccnc4nc3-c3ccccc3)c2cc1O [Compound 124, 7-Methoxy-4-(2-phenyl-[1,8]naphthyridin-3-yloxy)-quinolin-6-ol] |  |  | 99% | inhibition at 10 µM [6]: 100% |
| CCOC(=O)c1c(C)cccc1Oc1ccnc2cc(OC)c(OC)cc12 [Compound r92] |  |  |  | inhibition at 3 µM [3]: 25%; inhibition at 10 µM [4]: 82% |
| CCC(O)c1cc(C)ccc1Oc1ccnc2cc(OC)c(OC)cc12 (centres unmarked) [Compound r9, 1-{2-[(6,7-Dimethoxy-4-quinolyl)oxy]-5-methylphenyl}-1-propanol] |  |  |  | inhibition at 3 µM [3]: 29%; inhibition at 10 µM [4]: 77% |
| COc1cc2nccc(Oc3cc4cccnc4nc3-c3ccc(C#N)cc3)c2cc1OC [Compound 86, 4-[3-(6,7-Dimethoxy-quinolin-4-yloxy)-[1,8]naphthyridin-2-yl]-benzonitrile] |  |  | 26% | inhibition at 10 µM [6]: 74% |
| COc1cc2nccc(Oc3cc(C)c(C)cc3C(C)=O)c2cc1OC [Compound r38] |  |  |  | inhibition at 3 µM [3]: 98%; inhibition at 10 µM [4]: 100% |
| CCc1ccc(Oc2ccnc3cc(C(N)=O)c(OCc4ccccc4)cc23)c(-c2ncccn2)n1 [Compound 193, 6-Benzyloxy-4-(6-ethyl-2-pyrimidin-2-yl-pyridin-3-yloxy)-quinoline-7-carboxylic acid amide] |  |  | 80% |  |
| COc1cc2nccc(Oc3ccc(C)nc3-c3cccc(C(F)(F)F)c3)c2cc1OC [Compound r230] | 60% | 97% |  |  |
| COc1cc2c(Oc3cc(C)c(C)nc3-c3cccnc3)ccnc2cc1OCCCCO [Compound r444] | 100% |  |  |  |
| c1ccc(-c2nc3ncccc3cc2Oc2ccnc3cccnc23)cc1 [Compound 73, 4-(2-Phenyl-[1,8]naphthyridin-3-yloxy)-[1,5]naphthyridine] |  |  | 26% | inhibition at 10 µM [6]: 80% |
| Cc1cc(Oc2ccnc3cc(-c4csc5ccccc45)ccc23)c(-c2ccccn2)nc1C [Compound 172, 3-(7-Benzo[b]thiophen-3-yl-quinolin-4-yloxy)-5,6-dimethyl-[2,2']bipyridine] |  |  | 49% | inhibition at 10 µM [6]: 90% |
| CCN(CC)CCCOc1cc2nccc(Oc3ccc(C)cc3C(=O)c3ccccc3)c2cc1OC [Compound r134] |  |  |  | inhibition at 3 µM [3]: 100%; inhibition at 10 µM [4]: 100% |

Reference: patent EP1724268A1, “COMPOUND HAVING TGF-BETA INHIBITORY ACTIVITY AND PHARMACEUTICAL COMPOSITION CONTAINING SAME” (KIRIN BEER KABUSHIKI KAISHA, priority 2004, dated 2005)
